Test results from patent US20100075960A1 (priority 2006, published 2010).
pIC50: −log10 of the molar value.

Tests used:
Type in all cases: cell-based
SW156 = assay: Inhibition of cell proliferation, SW156; conditions: kidney; 72 h; methylene blue or CellTiter-Glo
Protocol: (§1) II. Inhibition of Cell Proliferation by PLK1 Inhibitors.
(§2) Exponentially growing cell lines of different tumor origins, cultured in appropriate media containing 10% fetal bovine serum at 37° C. in a 5% CO2 incubator were plated in 96 or 384-well plates. Twenty four hours post-plating, cells were treated with different concentrations of test compounds ranging from 20 μM to 0.04 nM. Several wells were left untreated as a control. Seventy two hours post-treatment, cell numbers were determined using different techniques; 100 μl per well of methylene blue (Sigma M9140) (0.5% in 50:50 Ethanol:water), or 10-100 μl per well of CellTiter-Glo (Promega #G7573), depending on well size. For methylene blue staining, stain was incubated at room temperature for 30 minutes before plates were rinsed and dye solubilized in 1% N-lauroyl sarcosine, sodium salt, (Sigma L5125, in PBS). Plates were read on a microplate reader, measuring the OD at 620 nm. For CellTiter-Glo, plates were incubated at room temperature for 15 minutes and the chemiluminescent signal was read on the Victor V or Envison 2100 reader.
(§3) Percent inhibition of cell growth was expressed as percent proliferation relative to 100% proliferation (control). […]

HCT-15 = assay: Inhibition of cell proliferation, HCT-15; conditions: Homo sapiens, colon, 72 h, methylene blue or CellTiter-Glo
Protocol: as §1, §2, §3

ASPC3 = assay: Inhibition of cell proliferation, ASPC3; conditions: Pancreatic; 72 h; methylene blue or CellTiter-Glo
Protocol: as §1, §2, §3

HT-1080 = assay: Inhibition of cell proliferation, HT-1080; conditions: Homo sapiens, connective tissue, 72 h, methylene blue or CellTiter-Glo
Protocol: as §1, §2, §3

HN5 = assay: Inhibition of cell proliferation, HN5; conditions: 72 h
Protocol: as §1, §2
(§4) Percent inhibition of cell growth was expressed as percent proliferation relative to 100% proliferation (control). Concentration of test compound that inhibited 50% of cell growth (IC50) was determined by 4 parameter fit of data using XLfit, (value of no cell control was substracted from all samples for background). The data are shown in Table 1 and Table 2 below and represent a compilation of several different experiments each performed using the general parameters outlined above, although minor variations may have been employed in some instances, in Table 1 and Table 2, +=IC50>1 μM; ++=IC50 0.5-1 μM: +++=IC50<0.5 μM.

SKMEL3 = assay: Inhibition of cell proliferation, SKMEL3; conditions: Homo sapiens, SK-MEL3; skin; 72 h; methylene blue or CellTiter-Glo
Protocol: as §1, §2, §3

SKOV-3 = assay: Inhibition of cell proliferation, SKOV-3; conditions: Homo sapiens, SK-OV-3; Ovarian; 72 h; methylene blue or CellTiter-Glo
Protocol: as §1, §2, §4

BC-1 = assay: Inhibition of cell proliferation, BC-1; conditions: Homo sapiens, BC1; peripheral blood; 72 h; methylene blue or CellTiter-Glo
Protocol: as §1, §2, §3

T-47D = assay: Inhibition of cell proliferation, T-47D; conditions: Homo sapiens, T47D; breast; 72 h; methylene blue or CellTiter-Glo
Protocol: as §1, §2, §3

A 704 = assay: Inhibition of cell proliferation, A 704; conditions: Homo sapiens, A704; kidney; 72 h; methylene blue or CellTiter-Glo
Protocol: as §1, §2, §3

BXPC3 = assay: Inhibition of cell proliferation, BXPC3; conditions: Homo sapiens, BXPC-3; Pancreatic; 72 h; methylene blue or CellTiter-Glo
Protocol: as §1, §2, §3

BT474 = assay: Inhibition of cell proliferation, BT474; conditions: Homo sapiens, BT-474; breast; 72 h; methylene blue or CellTiter-Glo
Protocol: as §1, §2, §3

SKMEL5 = assay: Inhibition of cell proliferation, SKMEL5; conditions: Homo sapiens, SK-MEL-5; skin; 72 h; methylene blue or CellTiter-Glo
Protocol: as §1, §2, §3

MALME-3M = assay: Inhibition of cell proliferation, MALME-3M; conditions: Homo sapiens, skin, derived from lung, 72 h, methylene blue or CellTiter-Glo
Protocol: as §1, §2, §3

CEM/C1 = assay: Inhibition of cell proliferation, CEM/C1; conditions: peripheral blood, 72 h, methylene blue or CellTiter-Glo
Protocol: as §1, §2, §3

BDCM = assay: Inhibition of cell proliferation, BDCM; conditions: peripheral blood; 72 h; methylene blue or CellTiter-Glo
Protocol: as §1, §2, §3

LoVo = assay: Inhibition of cell proliferation, LoVo; conditions: Homo sapiens, colon, 72 h, methylene blue or CellTiter-Glo
Protocol: as §1, §2, §3

H1299 = assay: Inhibition of cell proliferation, H1299; conditions: Homo sapiens, NCI-H1299; Lung; 72 h; methylene blue or CellTiter-Glo
Protocol: as §1, §2, §3

Capan-2 = assay: Inhibition of cell proliferation, Capan-2; conditions: Homo sapiens, pancreas, 72 h, methylene blue or CellTiter-Glo
Protocol: as §1, §2, §3

U87-MG = assay: Inhibition of cell proliferation, U87-MG; conditions: Homo sapiens, U-87 MG; brain; 72 h; methylene blue or CellTiter-Glo
Protocol: as §1, §2, §3

A2780 = assay: Inhibition of cell proliferation, A2780; conditions: Homo sapiens, ovary, 72 h, methylene blue or CellTiter-Glo
Protocol: as §1, §2, §3

MDA-MB-468 = assay: Inhibition of cell proliferation, MDA-MB-468; conditions: Homo sapiens, Breast, 72 h, methylene blue or CellTiter-Glo
Protocol: as §1, §2, §3

A498 = assay: Inhibition of cell proliferation, A498; conditions: Homo sapiens, kidney, 72 h, methylene blue or CellTiter-Glo
Protocol: as §1, §2, §3

HCC1954 = assay: Inhibition of cell proliferation, HCC1954; conditions: Homo sapiens, breast, 72 h, methylene blue or CellTiter-Glo
Protocol: as §1, §2, §3

A549-L = assay: Inhibition of cell proliferation, A549-L; conditions: lung; 72 h; methylene blue or CellTiter-Glo
Protocol: as §1, §2, §4

NCI-H358 = assay: Inhibition of cell proliferation, NCI-H358; conditions: Homo sapiens, lung, 72 h, methylene blue or CellTiter-Glo
Protocol: as §1, §2, §3

MCF7 = assay: Inhibition of cell proliferation, MCF7; conditions: Homo sapiens, Breast, 72 h, methylene blue or CellTiter-Glo
Protocol: as §1, §2, §3

RPMI 8226 = assay: Inhibition of cell proliferation, RPMI 8226; conditions: Homo sapiens, leukemia, 72 h, methylene blue or CellTiter-Glo
Protocol: as §1, §2, §3

With `C[C@@H](Oc1cc(-n2cnc3cc(-c4cnn(C)c4)ccc32)sc1C(N)=O)c1cccc(OC2CCN(C)CC2)c1Cl` [Example 48] the pIC50 (SW156) was under 6.00, the pIC50 (HCT-15) was over 6.30 and the pIC50 (ASPC3) was over 6.30. The pIC50 (HT-1080) was over 6.30, the pIC50 (HN5; Homo sapiens, Head and neck, Table 2 first HN5 line) was over 6.30 and the pIC50 (HN5; head/neck, Table 2 second HN5 line) was over 6.30. The pIC50 (SKMEL3) was over 6.30, the pIC50 (SKOV-3) was over 6.30 and the pIC50 (BC-1) was over 6.30. The pIC50 (T-47D) was under 6.00, the pIC50 (A 704) was over 6.30 and the pIC50 (BXPC3) was over 6.30. For the same compound, the pIC50 (BT474) was under 6.00, the pIC50 (SKMEL5) was over 6.30 and the pIC50 (MALME-3M) was under 6.00. For the same compound, the pIC50 (CEM/C1) was over 6.30, the pIC50 (BDCM) was over 6.30 and the pIC50 (LoVo) was over 6.30. It also gave a pIC50 (H1299) of over 6.30, a pIC50 (Capan-2) of under 6.00 and a pIC50 (U87-MG) of over 6.30. It also gave a pIC50 (A2780) of over 6.30, a pIC50 (MDA-MB-468) of over 6.30 and a pIC50 (A498) of over 6.30. For the same compound, the pIC50 (HCC1954) was over 6.30, the pIC50 (A549-L) was over 6.30 and the pIC50 (NCI-H358) was over 6.30. It also gave a pIC50 (MCF7) of over 6.30 and a pIC50 (RPMI 8226) of over 6.30.
